Converted amounts (≈) assume the structure as drawn. “And” between values parts separate entries of the source, which are not always exact repeats. Equal values may be shown once.
Tests used:
Botrytis cinerea = test: Spiral gradient dilution method, inhibition of mycelial growth and spore germination; type: cell-based
Procedure: (§1) In this method, a potato dextrose agar (PDA) medium is plated with the test solution by means of a spiral plater, which applies the compound in a 2.5-log dilution in a continuous radial concentration gradient. Fungal inoculum in two replicates is then placed along radial lines across the gradient. […] EC50 values were calculated based on these measurements. The fungi evaluated were members of the following families Anamorphic Phyllachoraceae (Colletotrichum acutatum), Anamorphic Sclerotiniaceae (Botrytis cinerea), Mitosporic fungi (Verticillium dahlias; Microphomina sp.), and Oomycota (Phytophtora capsici). Hinokitiol (5 mg/mL) was dissolved in acetone, and acetone alone was also used as a control to check for non-specific inhibition.

[1] = Analysis of hinokitiol residue on green beans after sun exposure; type: physicochemical, green bean; details: for [hinokitiol] in the HPLC injection solution: green bean leaves
Procedure: The goal of this study was to know stability of hinokitiol on plant leaves, instead of vials, after sun exposure. The following procedure was used • 1. A 3.2% Hinokitiol formulation containing propylene glycol, nonphytotoxic ethoxylate fatty esters; butanol, EDTA, UV protection agent, 1% sodium hydroxide and water for a total of 100% was used. The total weight of each formulation was 20 grams. • 2. Spraying solution: 10 mL of 100-fold dilution of the above formulation. • 3. Green bean plants: 6 plants with 10-15 leaves. • 4. Two plants were evenly sprayed 10 mL solution. • 5. Three plants was stored in dark incubator (25° C.), another three plants was put on the parking lot with full sun exposure (28˜35° C.). • 6. After 6 h, leaves were cut and punched into the same size discs (Ø21 mm). Discs from sun-exposed green bean and darkness green bean were 118 and 129, respectively. • 7. Discs were ground in a mortar and transferred into a separation funnel. The mortar and pestle were sequentially washed with 2 N HCl and ethyl acetate. The hinokitiol was extracted three times (3×50 mL) by ethyl acetate under 2N HCl (100 mL). The organic phase was dried by anhydrous sodium sulfate. After filtration and evaporation, the organic phase gave out a residue. The residue was dissolved by ethanol (1.5 mL). This solution was directly used for HPLC analysis. Injection volume was 10 μL.
• Darkness: leaf disc 129 • Sun exposure: leaf disc 118 • Darkness: Peak area (AU): 50463 • Sun exposure: Peak Area (AU); 13197 • Standard line: y=66.367X-52.019 (R^2=0.9999, X=μg/ml of hinokitiol standard solution, 2 μL injection volume; y=peak area)
• [hinokitiol] from darkness=152 μg/mL*1.5 mL/129 Disc=1.77 μg/Disc • [hinokitiol] from sun exposure=40 μg/mL*1.5 mL/118 Disc =0.51 μg/Disc
• [hinokitiol] from sun exposure/[hinokitiol] from darkness=0.51/1.77=0.29

[2] = system: annual bluegrass (Poa annua); test: Pot study, phytotoxicity and % weed control; type: in vivo
Procedure: (§2) A pot study was conducted to test the phytotoxicity of hinokitiol on both broadleaved and grass weed. Ten seeds of either chickweed (Stellaria media) or annual bluegrass (Poa annua) were planted in a plastic pot filled with potting mix. The 2-inch tall plants grown under growth lights (12-h light/12-h dark) at room temperature were sprayed with hinokitiol solutions containing 0.5, 1.0, 2.0, 3.0, 4.0 and 5.0 mg/mL hinokitiol in 50% ethanol. A solution of 50% ethanol without hinokitiol was used as a control treatment. The plants were kept at room temperature under growth lights and observed at two time points—4 and 14 days after treatment—for visual symptoms of phytotoxicity and % weed control.

[3] = system: chickweed (Stellaria media); test: Pot study, phytotoxicity and % weed control; type: in vivo
Procedure: as §2

Botrytis gray mold = Botrytis gray mold on pepper plants, formulation applied pre and post infection; type: in vivo
Procedure: Pepper plants (California Wonder Bell Pepper) were treated with a 3.2% Hinokitiol formulation containing propylene glycol, nonphytotoxic ethoxylate fatty esters; butanol, EDTA, UV protection agent, 1% of a 15% solution of sodium hydroxide and water 3 hours before and 24 hours after inoculation (pre and post infection, respectively). Hinokitiol concentration in pre-infection application was 1.0% v/v and for post-infection application was 2.0% v/v. Three plants were included per treatment in pre-infection applications, and 18 plants in post-infection treatments. The formulation employed contained 3.2% of active ingredient. Inoculation was performed with a conidial suspension of 1.8×10^6 conidia per ml of 75% PDB (Potato Dextrose Broth). Scale of evaluation was 0=no infection, 1=Small scattered lesions, 2=Scattered big lesions or small ones covering more than 50% of leaf surface, 3=Half plant dead, 4=75% of the plant dead, 5=Entire plant dead. Evaluation was performed 3 days after inoculation.

Phytophtora capsici = test: Spiral gradient dilution method, inhibition of mycelial growth; type: cell-based; details: PDA, 20° C., hinokitiol in acetone
Procedure: as §1

Verticillium dahliae = test: as above; type: cell-based; details: PDA, 20° C., hinokitiol in acetone
Procedure: as §1

Microphomina sp. = test: as above; type: cell-based; details: PDA, 20° C., hinokitiol in acetone
Procedure: as §1

Colletotrichum acutatum = test: as above; type: cell-based; details: PDA, 20° C., hinokitiol in acetone
Procedure: as §1

[4] = 0.5 mg/mL in 50% ethanol, 4 DAYS
[5] = 0.5 mg/mL in 50% ethanol, 14 DAYS
[6] = 1.0 mg/mL in 50% ethanol, 4 DAYS
[7] = 1.0 mg/mL in 50% ethanol, 14 DAYS
[8] = 2.0 mg/mL in 50% ethanol, 4 DAYS
[9] = 2.0 mg/mL in 50% ethanol, 14 DAYS
[10] = 3.0 mg/mL in 50% ethanol, 4 DAYS
[11] = 3.0 mg/mL in 50% ethanol, 14 DAYS
[12] = 4.0 mg/mL in 50% ethanol, 4 DAYS
[13] = 4.0 mg/mL in 50% ethanol, 14 DAYS
[14] = 5.0 mg/mL in 50% ethanol, 4 DAYS
[15] = 5.0 mg/mL in 50% ethanol, 14 DAYS

## CC(C)c1cccc(=O)c(O)c1 [Hinokitiol, 4-isopropyl tropolone]
Botrytis cinerea; B. cinerea, hinokitiol at concentrations 5-0.05 mg/mL, light microscope
  inhibition in spore germination: 100%
Botrytis cinerea; Botrytis cinerea, PDA, 20° C., hinokitiol in acetone
  EC50: 31 µg/mL (≈ 189 µM)
[1]; 6 h
  Relative stability: [hinokitiol] from sun exposure/[hinokitiol] from darkness: 0.29
[1]; 6 h darkness, 25° C.
  hinokitiol concentration on each disc of green beans: 1.77 μg/Disc
  [hinokitiol] in the HPLC injection solution: 152 µg/mL
[1]; 6 h sun exposure, 28-35° C.
  hinokitiol concentration on each disc of green beans: 0.51 μg/Disc
  [hinokitiol] in the HPLC injection solution: 40 µg/mL
[1]; after 6 h sun exposure at 28-35° C.
  hinokitiol concentration per unit area (Disc) relative to that stored in the darkness at 25° C.: 29%
[1]; green bean plants
  time the residue on the plant would last: at least one day
[2]; [4]
  Poa annua (% control): 0%
[2]; [5]
  Poa annua (% control): 0%
[2]; [6]
  Poa annua (% control): 1%
[2]; [7]
  Poa annua (% control): 0%
[2]; [8]
  Poa annua (% control): 2%
[2]; [9]
  Poa annua (% control): 5%
[2]; [10]
  Poa annua (% control): 10%
[2]; [11]
  Poa annua (% control): 15%
[2]; [12]
  Poa annua (% control): 30%
[2]; [13]
  Poa annua (% control): 25%
[2]; [14]
  Poa annua (% control): 50%
[2]; [15]
  Poa annua (% control): 50%
[3]; [4]
  Stellaria media (% control): 1%
[3]; [5]
  Stellaria media (% control): 0%
[3]; [6]
  Stellaria media (% control): 2%
[3]; [7]
  Stellaria media (% control): 10%
[3]; [8]
  Stellaria media (% control): 10%
[3]; [9]
  Stellaria media (% control): 55%
[3]; [10]
  Stellaria media (% control): 95%
[3]; [11]
  Stellaria media (% control): 100%
[3]; [12]
  Stellaria media (% control): 98%
[3]; [13]
  Stellaria media (% control): 100%
[3]; [14]
  Stellaria media (% control): 100%
[3]; [15]
  Stellaria media (% control): 100%
Botrytis gray mold; 0.64 mg/ml, 24 hr after inoculation, of 18 plants per rep
  number of pepper plants at scale of infection 2: 12 and 7
Botrytis gray mold; 0.64 mg/ml, 24 hr after inoculation, of 18 plants per rep, 4 = 75% of the plant dead
  number of pepper plants at scale of infection 4: 1 and 2
Botrytis gray mold; 3.2% hinokitiol formulation at 1.0% v/v (0.32 mg/ml), applied 3 hr before inoculation, evaluated 3 days after inoculation, 1 = small scattered lesions, 5 = entire plant dead
  intensity of disease (scale of severity 0-5), single plants: 1
Botrytis gray mold; hinokitiol formulation at 1% (0.32 mg/ml) dilution
  visible symptoms of disease or phytotoxicity on pepper plants: did not show any visible syptoms of disease or phytotocicity
Phytophtora capsici
  EC50: 12 µg/mL (≈ 73.1 µM)
Verticillium dahliae
  EC50: 11 µg/mL (≈ 67 µM)
Microphomina sp.
  EC50: 11 µg/mL (≈ 67 µM)
Colletotrichum acutatum
  EC50: 12 µg/mL (≈ 73.1 µM)

From patent publication US20090029856A1, “Hinokitiol As A Plant Pesticide” (priority 2007, published 2009)
